Reference: publication PMC10126150 (2023)

What was measured:
[1] = tested on: glu-4 ADS construct (DNA, aptamer, boronic acid-modified U (Z, T in the source) at 5,7,8,12,15,19,24,26 of strand 1 (MS of Bio-NNGmin: seven of eight coupled)) CCCGTGTTAGATAGTAAGTGCAATCTCGGCTTTCTGTCTCTTATACACATCTGACGCTGCCGACGA/TCGTCGGCAGCGTCAGATGTGTATAAGAGACAGTTTTTTTTTTTTTTTTTTTTTTTTTACCAGGAGCTTC; test: Cy3/quencher fluorescence plate reader, single-site fit; conditions: 120 mM Na+, 5 mM K+, 1 mM Mg2+, 1 mM Ca2+; 20 mM Tris-HCl, 0.01% Tween-20, 25 °C; apparent; order of ~0.3 for all four constructs
[2] = tested on: NNGmin_scr with glu-4 (DNA, other, boronic acid-modified U (Z) at 1,4,15,18,19,22,26,29 of strand 1) TGGTGCGCGCAGGCTCCTTAATGCATAATTTTCTGTCTCTTATACACATCTGACGCTGCCGACG/TCGTCGGCAGCGTCAGATGTGTATAAGAGACAGTTTTTTTTTTTTTTTTTTTTTTTTTACCAGGAGCTTC; test: Cy3/quencher fluorescence plate reader; conditions: 120 mM Na+, 5 mM K+, 1 mM Mg2+, 1 mM Ca2+; 20 mM Tris-HCl, 25 °C; 20% signal change against 45-50% for glu1-4
[3] = tested on: NNGmin_scr with glu-3 (DNA, other, boronic acid-modified U (Z) at 1,4,15,18,19,22,26,29 of strand 1) TGGTGCGCGCAGGCTCCTTAATGCATAATTTTCTGTCTCTTATACACATCTGACGCTGCCGACG/TCGTCGGCAGCGTCAGATGTGTATAAGAGACAGTTTTTTTTTTTTTTTTTTTTTTTTTTACCAGGAGCTC; test: Cy3/quencher fluorescence plate reader; conditions: 120 mM Na+, 5 mM K+, 1 mM Mg2+, 1 mM Ca2+; 20 mM Tris-HCl, 25 °C; 20% signal change against 45-50% for glu1-4
[4] = tested on: glu-1 ADS construct (DNA, aptamer, boronic acid-modified U (Z, T in the source) at 5,7,8,12,15,19,24,26 of strand 1 (MS of Bio-NNGmin: seven of eight coupled)) CCCGTGTTAGATAGTAAGTGCAATCTCGGCTTTCTGTCTCTTATACACATCTGACGCTGCCGACGA/TCGTCGGCAGCGTCAGATGTGTATAAGAGACAGTTTTTTTTTTTTTTTTTTTTTTTTTTAGGGCAGGCTC; test: Cy3/quencher fluorescence plate reader, single-site fit; conditions: 120 mM Na+, 5 mM K+, 1 mM Mg2+, 1 mM Ca2+; 20 mM Tris-HCl, 0.01% Tween-20, 25 °C; apparent; order of ~0.3 for all four constructs
[5] = tested on: glu-3 ADS construct (DNA, aptamer, boronic acid-modified U (Z, T in the source) at 5,7,8,12,15,19,24,26 of strand 1 (MS of Bio-NNGmin: seven of eight coupled)) CCCGTGTTAGATAGTAAGTGCAATCTCGGCTTTCTGTCTCTTATACACATCTGACGCTGCCGACGA/TCGTCGGCAGCGTCAGATGTGTATAAGAGACAGTTTTTTTTTTTTTTTTTTTTTTTTTTACCAGGAGCTC; test: as above; conditions: 120 mM Na+, 5 mM K+, 1 mM Mg2+, 1 mM Ca2+; 20 mM Tris-HCl, 0.01% Tween-20, 25 °C; apparent; order of ~0.3 for all four constructs
[6] = tested on: NNGmin_scr with glu-1 (DNA, other, boronic acid-modified U (Z) at 1,4,15,18,19,22,26,29 of strand 1) TGGTGCGCGCAGGCTCCTTAATGCATAATTTTCTGTCTCTTATACACATCTGACGCTGCCGACG/TCGTCGGCAGCGTCAGATGTGTATAAGAGACAGTTTTTTTTTTTTTTTTTTTTTTTTTTAGGGCAGGCTC; test: Cy3/quencher fluorescence plate reader; conditions: 120 mM Na+, 5 mM K+, 1 mM Mg2+, 1 mM Ca2+; 20 mM Tris-HCl, 25 °C; 20% signal change against 45-50% for glu1-4
[7] = tested on: glu-2 ADS construct (DNA, aptamer, boronic acid-modified U (Z, T in the source) at 5,7,8,12,15,19,24,26 of strand 1 (MS of Bio-NNGmin: seven of eight coupled)) CCCGTGTTAGATAGTAAGTGCAATCTCGGCTTTCTGTCTCTTATACACATCTGACGCTGCCGACGA/TCGTCGGCAGCGTCAGATGTGTATAAGAGACAGTTTTTTTTTTTTTTTTTTTTTTTTTCAGGACAGGCTC; test: Cy3/quencher fluorescence plate reader, single-site fit; conditions: 120 mM Na+, 5 mM K+, 1 mM Mg2+, 1 mM Ca2+; 20 mM Tris-HCl, 0.01% Tween-20, 25 °C; apparent; order of ~0.3 for all four constructs
[8] = tested on: NNGmin_scr with glu-2 (DNA, other, boronic acid-modified U (Z) at 1,4,15,18,19,22,26,29 of strand 1) TGGTGCGCGCAGGCTCCTTAATGCATAATTTTCTGTCTCTTATACACATCTGACGCTGCCGACG/TCGTCGGCAGCGTCAGATGTGTATAAGAGACAGTTTTTTTTTTTTTTTTTTTTTTTTTCAGGACAGGCTC; test: Cy3/quencher fluorescence plate reader; conditions: 120 mM Na+, 5 mM K+, 1 mM Mg2+, 1 mM Ca2+; 20 mM Tris-HCl, 25 °C; 20% signal change against 45-50% for glu1-4
[9] = tested on: atp-7 ADS construct (DNA, aptamer) CACCTGGGGGAGTATTGCGGAGGAAGGTTTCTGTCTCTTATACACATCTGACGCTGCCGACGA/TCGTCGGCAGCGTCAGATGTGTATAAGAGACAGTTTTTTTTTTTTTTTTTTTTTTTTTCCGGGGGCTATC; test: Cy3/quencher fluorescence plate reader, two-site fit; conditions: 120 mM Na+, 5 mM K+, 1 mM Mg2+, 1 mM Ca2+; 20 mM Tris-HCl, 0.01% Tween-20, 25 °C; apparent; lower end of range 12–157, atp-7 stated highest affinity

Row | SMILES | KDeff [1] | binding [2] | binding [3] | KDeff [4] | KDeff [5] | binding [6] | KDeff [7] | binding [8] | KD [9]
1 | OC[C@H]1OC(O)[C@H](O)[C@@H](O)[C@@H]1O (stereo partly drawn) | ~ 0.3 mM | weak | weak | ~ 0.3 mM | ~ 0.3 mM | weak | ~ 0.3 mM | weak | –
2 | Nc1ncnc2c1ncn2[C@@H]1O[C@H](COP(=O)(O)OP(=O)(O)OP(=O)(O)O)[C@@H](O)[C@H]1O | – | – | – | – | – | – | – | – | 12 µM
